Experimental data taken from publication PMC5398914 (Nature, 2017).

Target: T1, OxsB + OxsA (OxsA/OxsB) (Priestia megaterium, UniProt O24770)
T1 sequence (O24770 1-744): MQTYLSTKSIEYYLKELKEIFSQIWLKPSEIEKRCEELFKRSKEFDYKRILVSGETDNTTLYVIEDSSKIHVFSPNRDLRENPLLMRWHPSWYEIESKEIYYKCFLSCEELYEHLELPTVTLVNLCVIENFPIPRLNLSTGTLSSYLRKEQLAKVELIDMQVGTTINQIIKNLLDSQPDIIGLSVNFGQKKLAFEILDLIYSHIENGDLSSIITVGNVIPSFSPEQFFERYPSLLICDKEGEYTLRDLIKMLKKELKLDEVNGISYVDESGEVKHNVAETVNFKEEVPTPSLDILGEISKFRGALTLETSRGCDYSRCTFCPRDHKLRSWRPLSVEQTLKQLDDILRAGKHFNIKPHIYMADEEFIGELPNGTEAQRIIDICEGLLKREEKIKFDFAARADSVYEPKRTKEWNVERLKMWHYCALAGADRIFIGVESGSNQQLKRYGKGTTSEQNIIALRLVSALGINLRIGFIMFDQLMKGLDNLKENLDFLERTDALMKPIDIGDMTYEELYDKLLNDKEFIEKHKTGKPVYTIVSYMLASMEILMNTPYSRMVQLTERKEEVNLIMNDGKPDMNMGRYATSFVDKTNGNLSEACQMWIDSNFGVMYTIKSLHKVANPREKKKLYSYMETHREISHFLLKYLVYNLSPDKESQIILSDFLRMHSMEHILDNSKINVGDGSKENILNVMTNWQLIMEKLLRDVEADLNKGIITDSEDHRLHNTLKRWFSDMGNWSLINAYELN
Experiment: HPLC product detection, MS and NMR
Assay type: biochemical
Settings: AdoMet, HO-Cbl, MgCl2, DTT, NADPH / methyl viologen

Nc1ncnc2c1ncn2[C@H]1C[C@H](O)[C@@H](COP(=O)(O)O)O1 [dAMP]
HPLC product detection, MS and NMR: identify dAMP, dADP and dATP as OXT-A precursors
